# Laboratory results reported in patent US7091185B2, “Periodic antimicrobial peptides” (Dow Global Technologies Inc., priority 2003, dated 2006).
# Where no end group is shown, it is not given here.
# Legend:
# [1] = tested on: P. aeruginosa ATCC 15442; test: HMARQ biocidal kill activity; format: cell-based; conditions: P. aeruginosa ATCC 15442 (gram−)
# Description: (§1) Biocide efficacy protocols were improved by reducing sample size, organizing the test material into an array format, implementing most probable number (MPN) quantitation and using multi-channel liquid handling equipment. We call the new method “high-throughput microanalysis and rapid quantitation” or “HMARQ.” HMARQ is directly applicable to current industrial efficacy tests such as multi-cycle preservation challenge or time course disinfection tests.
# (§2) HMARQ is performed in a high throughput plate, such as 96-well microtiter plates. Typical sample volumes have been reduced down to 200 to 300 μL, but can be reduced further if desired. In these samples, no more than 10% of the total volume will be composed of the biocide and organism solution, and all non-matrix additions are normalized for all samples.
# (§3) The sample matrix is first inoculated with the desired concentration of microorganisms. Inoculated sample matrix is then added to the 96-well assay block containing the biocide(s) under study. Each sample block contains biocide treated samples and untreated control samples (lacking biocide). Once the samples are prepared, the entire block of samples is mixed by vortexing until each sample is homogenous. In general, the study starts once mixing is complete, and samples are removed as required for the analysis. When Kill Time testing (rate of biocide activity) is performed, the microorganisms are added after biocide addition to the samples, allowing for rapid mixing and analysis.
# (§4) Bacterial concentration (CFU/mL) is determined using the most probable number method (MPN). The contaminated solution is serially diluted until the “no growth” endpoint is reached. The endpoint represents the MPN and is expressed in units of the bacterial concentration. A serial 1:10 dilution will yield a bacterial concentration resolution of 1 log and the log reduction is determined by comparing the concentration of organisms in a treated sample to the concentration of organisms in untreated samples. For example, if a sample requires four 1:10 dilutions before bacterial growth is lost then the MPN for bacterial concentration in the sample is less than or equal to 1×10^4 CFU/mL (1E4). […] This method of enumeration is generally applicable to all non-filamentous microorganisms.
# (§5) Media included Tryptic Soy Broth (TSB) for bacteria and Sabouraud Dextrose Broth (SDB) for fungi. These are available commercially and prepared according to the manufacturers instructions. Indicator medium was TSB/R for bacteria and SDB/R for fungi. These were made by addition of 50 μM filter sterilized Resazurin to the sterilized and cooled medium. Tryptic Soy agar plates (TSA) and SDA slants were used to provide inoculant for bacterial and fungal cultures. The indicator dye appeared pink or white when bacterial growth was present.
# (§6) Using the HMARQ test described above, periodic peptides were generated and tested for Kill Activity. In this experiment, a broader range of peptidezs were tested for activity. Units are expressed as ppm (μg/mL) needed for 3.5 log kill at 15 min or 24 hour and the results are shown below.
# [2] = tested on: Staph. aureus ATCC 6538; test: HMARQ biocidal kill activity; format: cell-based; conditions: Staph. aureus ATCC 6538 (gram+)
# Description: as §1, §2, §3, §4, §5, §6
# [3] = tested on: E. coli ATCC 2592; conditions: ATCC 2592
# Description: (§7) The bacteria tested were P. aeruginosa American Type Culture Collection Number (ATCC) 10145, E. coli ATCC 2592, and S. aureus (methicillin reseistant) ATTC 33591.
# (§8) All experiments were compared to bacterial growth under optimal growth conditions (37° C., pH 7.0, absence of additional salt, growth media—referred to as standard growth conditions). In each plate, no growth control (media alone), positive growth control (bacteria with no test sample), positive antimicrobial controls (agents with known antimicrobial activity) and test compounds were tested.
# (§9) The plates were incubated overnight, and the relative percent growth determined by optical density at 620 nm (OD620) using a […] […] PLUS™. […] All samples were tested in duplicate and each assay was repeated at least twice. […] IC50 and MIC are reported in μg/ml.
# [4] = tested on: P. aeruginosa ATCC 10145; conditions: ATCC 10145
# Description: as §7, §8, §9
# [5] = tested on: S. aureus (methicillin resistant) ATCC 33591; conditions: ATCC 33591
# Description: as §7, §8, §9
# [6] = tested on: C. albicans 10231; format: cell-based; conditions: 10231
# Description: (§10) The MIC and IC50 values were determined by a broth microdilution method according to guidelines of the National Committee for Clinical Laboratory Standard as follows: In 96-well tissue culture plates, a fixed volume of bacterial suspension in 2× broth (as defined below) was added to the mixtures or individual compounds dispensed at concentrations varying from 1,000 to 1 μg/ml derived from serial two-fold dilutions in sterile water. The bacteria tested were P. aeruginosa American Type Culture Collection Number (ATCC) 10145, E. coli ATCC 2592, and S. aureus (methicillin reseistant) ATTC 33591.
# (§11) The plates were incubated overnight, and the relative percent growth determined by optical density at 620 nm (OD620) using a TITERTEK MULTISKAN PLUS™. […] IC50 values were calculated using a sigmoidal curve fitting software program (GRAPHPAD,™ ISI Software,™ San Diego, Calif.). All samples were tested in duplicate and each assay was repeated at least twice. In the following table, KFAK is the repeat unit and multimers of KFAK were tested. IC50 and MIC are reported in μg/ml.
# (§12) Because the antibacterial activity of the periodic peptides was so promising, further experiments were performed to determine if the periodic peptides also had antifungal activity. The experimental design was similar to that above, with accommodation made for fungal growth requirements, including the use of Sabouraud Dextrose Broth (SDB) and Sabouraud Dextrose Agar (SDA) slants.
# [7] = tested on: Cr. Neoformans 32045; format: cell-based
# Description: as §10, §11, §12
# [8] = Red blood cell toxicity; format: cell-based; conditions: red blood cells (RBC); RBCs; concentration required for 50% toxicity; read-out: TX50
# [9] = tested on: Red blood cells (RBC); test: Red blood cell toxicity; format: cell-based
Molecule,ppm needed for 3.5 log kill at 15 min [1],ppm needed for 3.5 log kill at 24 hr [1],ppm needed for 3.5 log kill at 15 min [2],ppm needed for 3.5 log kill at 24 hr [2],other results
FKA FKA FKA FKA FKA FKA FKA FKA FKA FKA FKA FKA FKA FKA FKA FKA FKA (FKAFKAFKAFKAFKAFKAFKAFKAFKAFKAFKAFKAFKAFKAFKAFKAFKA; Periodic Peptide) [FKA(17)],16 ppm,16 ppm,4 ppm,8 ppm,–
"FKLRAKIKVRLRAKIKL [D4E1, FKLRAKIKVRLRAKIKL, reference compound]",–,–,–,–,IC50 [3]: 3.3 µg/mL; MIC [3]: 8 to 16 µg/mL; IC50 [4]: 6.2 µg/mL; MIC [4]: 8 to 16 µg/mL; IC50 [5]: 6.3 µg/mL; MIC [5]: 32 to 62 µg/mL; IC50 [6]: 70.6 µg/mL; MIC [6]: 80 to 125 µg/mL; IC50 [7]: 1.8 µg/mL; MIC [7]: 8 to 16 µg/mL; HC50 at 24 h [8]: 134 µg/mL; % kill at 250 μg/ml [9]: 77.2%
"H-KFAKKFAKKAAKKAAK-OH [PBF16b, KFAKKFAKKAAKKAAK, reference compound]",–,–,–,–,IC50 [4]: >250 µg/mL; MIC [4]: >250 µg/mL
"H-KFAKKFAKKFAKKAAK-OH [PBF16a, KFAKKFAKKFAKKAAK, reference compound]",–,–,–,–,IC50 [4]: >250 µg/mL; MIC [4]: >250 µg/mL
"KFAKKAAKKFAKKAAK [PBF16c, KFAKKAAKKFAKKAAK, reference compound]",–,–,–,–,IC50 [4]: >250 µg/mL; MIC [4]: >250 µg/mL
KFK KFK KFK KFK KFK KFK KFK KFK KFK KFK KFK KFK (KFKKFKKFKKFKKFKKFKKFKKFKKFKKFKKFKKFK; Periodic Peptide) [KFK(12)],4 ppm,8 ppm,>500 ppm,250 ppm,–
KFK KFK KFK KFK KFK KFK KFK KFK KFK KFK KFK KFK KFK KFK KFK KFK (KFKKFKKFKKFKKFKKFKKFKKFKKFKKFKKFKKFKKFKKFKKFKKFK; Periodic Peptide) [KFK(16)],16 ppm,31 ppm,>500 ppm,16 ppm,–
KGK KGK KGK KGK KGK KGK KGK KGK KGK KGK KGK (KGKKGKKGKKGKKGKKGKKGKKGKKGKKGKKGK; Periodic Peptide) [KGK(11)],8 ppm,8 ppm,>500 ppm,8 ppm,–
KGK KGK KGK KGK KGK KGK KGK KGK KGK KGK KGK KGK KGK KGK KGK (KGKKGKKGKKGKKGKKGKKGKKGKKGKKGKKGKKGKKGKKGKKGK; Periodic Peptide) [KGK(15)],4 ppm,16 ppm,125 ppm,62 ppm,–
KTK KTK KTK KTK KTK KTK KTK (KTKKTKKTKKTKKTKKTKKTK; Periodic Peptide) [KTK(7)],31 ppm,31 ppm,250 ppm,8 ppm,–
LK LK LK LK LK (LKLKLKLKLK; Periodic Peptide) [LK(5)],62 ppm,62 ppm,>500 ppm,31 ppm,–
LK LK LK LK LK LK LK LK LK LK LK LK LK LK LK LK LK LK (LKLKLKLKLKLKLKLKLKLKLKLKLKLKLKLKLKLK; Periodic Peptide) [LK(18)],16 ppm,31 ppm,8 ppm,16 ppm,–
LK LK LK LK LK LK LK LK LK LK LK LK LK LK LK LK LK LK LK LK LK LK LK LK (LKLKLKLKLKLKLKLKLKLKLKLKLKLKLKLKLKLKLKLKLKLKLKLK; Periodic Peptide) [LK(24)],16 ppm,63 ppm,>500 ppm,>500 ppm,–
FKA FKA FKA FKA FKA FKA FKA FKA FKA FKA FKA FKA FKA FKA FKA FKA FKA FKA FKA FKA FKA (Periodic Peptide) FKAFKAFKAFKAFKAFKAFKAFKAFKAFKAFKAFKAFKAFKAFKAFKAFKAFKAFKAFKAFKA,8 ppm,16 ppm,4 ppm,125 ppm,–
KFK KFK KFK KFK KFK KFK KFK KFK KFK KFK KFK KFK KFK KFK KFK KFK KFK KFK KFK KFK KFK (Periodic Peptide) KFKKFKKFKKFKKFKKFKKFKKFKKFKKFKKFKKFKKFKKFKKFKKFKKFKKFKKFKKFKKFK,31 ppm,63 ppm,>500 ppm,250 ppm,–
KFAK KFAK KFAK KFAK KFAK KFAK KFAK KFAK KFAK KFAK KFAK KFAK KFAK KFAK KFAK KFAK KFAK (Periodic Peptide) KFAKKFAKKFAKKFAKKFAKKFAKKFAKKFAKKFAKKFAKKFAKKFAKKFAKKFAKKFAKKFAKKFAK,16 ppm,250 ppm,250 ppm,500 ppm,–
